Laboratory results as given in patent publication US20230278972A1, “SUBSTITUTED HALOALKYL SULFONANILIDE HERBICIDES” (FMC Corporation, priority 2020, published 2023).

Key:
Format in all cases: in vivo
kochia (Bassia scoparia) [1] = assay: Test A preemergence, kochia; conditions: Preemergence, 0 to 100 scale (0 no effect, 100 complete control)
How it was run: (§1)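 Postemergence ratings come from foliar sprays onto one- to two-leaf plants of 2 to 10 cm grown in loam/sand; preemergence ratings come from a directed spray onto the soil of newly seeded pots. Formulation was a surfactant-containing non-phytotoxic solvent blend.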

[2] = test system: pigweed (Amaranthus retroflexus); assay: Test A preemergence, pigweed; conditions: 0 to 100 scale (0 no effect, 100 complete control)
How it was run: (§2)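 After sowing into a sand-amended loam, pots for the preemergence test were treated by spraying directly onto soil. In parallel, seedlings at the one- to two-leaf stage and 2 to 10 cm tall were treated postemergence with the identical surfactant-containing formulation.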

[3] = test system: blackgrass (Alopecurus myosuroides); assay: Test A postemergence, blackgrass; conditions: Postemergence, 0 to 100 scale (0 no effect, 100 complete control); for Plant response rating, Blackgrass: 125 g ai/ha; for Blackgrass plant response rating: 500 g ai/ha, visual injury vs untreated controls after approx. 10 days
How it was run: as §1

[4] = test system: Foxtail, Giant (giant foxtail, Setaria faberi); assay: Test A postemergence, Foxtail, Giant; conditions: Postemergence, 0 to 100 scale (0 no effect, 100 complete control); for Plant response rating, Foxtail, Giant: 125 g ai/ha; for Foxtail, Giant plant response rating: 500 g ai/ha, visual injury vs untreated controls after approx. 10 days
How it was run: as §1

[5] = test system: wheat (Triticum aestivum); assay: Test A postemergence, wheat; conditions: Postemergence, 0 to 100 scale (0 no effect, 100 complete control); for Plant response rating, Wheat: 125 g ai/ha; for Wheat plant response rating: 500 g ai/ha, visual injury vs untreated controls after approx. 10 days
How it was run: as §2

[6] = test system: barnyardgrass (Echinochloa crus-galli); assay: Test A preemergence, barnyardgrass; conditions: Preemergence, 0 to 100 scale (0 no effect, 100 complete control)
How it was run: as §1

[7] = test system: ragweed (common ragweed, Ambrosia artemisiifolia); assay: Test A postemergence, ragweed; conditions: Postemergence, 0 to 100 scale (0 no effect, 100 complete control); for Plant response rating, Ragweed: 125 g ai/ha; for Ragweed plant response rating: 500 g ai/ha, visual injury vs untreated controls after approx. 10 days
How it was run: as §1

kochia (Bassia scoparia) [8] = assay: Test A postemergence, kochia; conditions: Postemergence, 0 to 100 scale (0 no effect, 100 complete control); for Plant response rating, Kochia: 125 g ai/ha; for Kochia plant response rating: 500 g ai/ha, visual injury vs untreated controls after approx. 10 days
How it was run: as §1

[9] = test system: pigweed (Amaranthus retroflexus); assay: Test A postemergence, pigweed; conditions: Postemergence, 0 to 100 scale (0 no effect, 100 complete control); for Plant response rating, Pigweed: 125 g ai/ha; for Pigweed plant response rating: 500 g ai/ha, visual injury vs untreated controls after approx. 10 days
How it was run: as §1

[10] = test system: Ryegrass, Italian (Italian ryegrass, Lolium multiflorum); assay: Test A postemergence, Ryegrass, Italian; conditions: Postemergence, 0 to 100 scale (0 no effect, 100 complete control); for Plant response rating, Ryegrass, Italian: 125 g ai/ha; for Ryegrass, Italian plant response rating: 500 g ai/ha, visual injury vs untreated controls after approx. 10 days
How it was run: as §1

[11] = test system: Foxtail, Giant (giant foxtail, Setaria faberi); assay: Test A preemergence, Foxtail, Giant; conditions: Preemergence, 0 to 100 scale (0 no effect, 100 complete control)
How it was run: as §1

corn (Zea mays) = assay: Test A postemergence, corn; conditions: Postemergence, 0 to 100 scale (0 no effect, 100 complete control); for Plant response rating, Corn: 125 g ai/ha; for Corn plant response rating: 500 g ai/ha, visual injury vs untreated controls after approx. 10 days
How it was run: as §1

[12] = test system: ragweed (common ragweed, Ambrosia artemisiifolia); assay: Test A preemergence, ragweed; conditions: Preemergence, 0 to 100 scale (0 no effect, 100 complete control)
How it was run: as §1

[13] = test system: barnyardgrass (Echinochloa crus-galli); assay: Test A postemergence, barnyardgrass; conditions: Postemergence, 0 to 100 scale (0 no effect, 100 complete control); for Plant response rating, Barnyardgrass: 125 g ai/ha; for Barnyardgrass plant response rating: 500 g ai/ha, visual injury vs untreated controls after approx. 10 days
How it was run: as §2

[14] = test system: galium (catchweed bedstraw, Galium aparine); assay: Test A postemergence, galium; conditions: Postemergence, 0 to 100 scale (0 no effect, 100 complete control); for Plant response rating, Galium: 125 g ai/ha; for Galium plant response rating: 500 g ai/ha, visual injury vs untreated controls after approx. 10 days
How it was run: as §2

[15] = test system: Ryegrass, Italian (Italian ryegrass, Lolium multiflorum); assay: Test A preemergence, Ryegrass, Italian; conditions: Preemergence, 0 to 100 scale (0 no effect, 100 complete control)
How it was run: as §1

[16] = 125 g ai/ha, visual injury, approx. 10 days

For `Cc1cc(F)c(C(=O)N(C)C)cc1NS(=O)(=O)C(F)(F)F` [Compound 215], the “Plant response rating, Kochia” value (kochia (Bassia scoparia) [1]; [16]) was 80, the “Plant response rating, Kochia” value (kochia (Bassia scoparia) [1]; 500 g ai/ha) was 90 and the “Plant response rating, Pigweed” value [2, 16] was 100. The “Plant response rating, Pigweed” value ([2]; 500 g ai/ha) was 90, the “Plant response rating, Blackgrass” value [3] was 0 and the “Blackgrass plant response rating” value [3] was 0. For the same compound, the “Plant response rating, Foxtail, Giant” value [4] was 20, the “Foxtail, Giant plant response rating” value [4] was 50 and the “Plant response rating, Wheat” value [5] was 30. For the same compound, the “Wheat plant response rating” value [5] was 70, the “Plant response rating, Barnyardgrass” value [6, 16] was 60 and the “Plant response rating, Barnyardgrass” value ([6]; 500 g ai/ha) was 90. For the same compound, the “Plant response rating, Ragweed” value [7] was 60, the “Ragweed plant response rating” value [7] was 80 and the “Plant response rating, Kochia” value (kochia (Bassia scoparia) [8]) was 30. The “Kochia plant response rating” value (kochia (Bassia scoparia) [8]) was 70, the “Plant response rating, Pigweed” value [9] was 50 and the “Pigweed plant response rating” value [9] was 80. The “Plant response rating, Ryegrass, Italian” value [10] was 0, the “Ryegrass, Italian plant response rating” value [10] was 60 and the “Plant response rating, Foxtail, Giant” value [11, 16] was 40. The “Plant response rating, Foxtail, Giant” value ([11]; 500 g ai/ha) was 70, the “Plant response rating, Corn” value (corn (Zea mays)) was 0 and the “Corn plant response rating” value (corn (Zea mays)) was 60. The “Plant response rating, Ragweed” value [12, 16] was 0, the “Plant response rating, Ragweed” value ([12]; 500 g ai/ha) was 20 and the “Plant response rating, Barnyardgrass” value [13] was 0. The “Barnyardgrass plant response rating” value [13] was 40, the “Plant response rating, Galium” value [14] was 50 and the “Galium plant response rating” value [14] was 70. The “Plant response rating, Ryegrass, Italian” value [15, 16] was 20 and the “Plant response rating, Ryegrass, Italian” value ([15]; 500 g ai/ha) was 70.

With `Cc1cc(F)c(C(=O)N(C)C)cc1N(S(=O)(=O)C(F)(F)F)S(=O)(=O)C(F)(F)F` [Compound 216] the “Plant response rating, Kochia” value (kochia (Bassia scoparia) [1]; [16]) was 100, the “Plant response rating, Kochia” value (kochia (Bassia scoparia) [1]; 500 g ai/ha) was 90 and the “Plant response rating, Pigweed” value [2, 16] was 80. For the same compound, the “Plant response rating, Pigweed” value ([2]; 500 g ai/ha) was 100, the “Plant response rating, Blackgrass” value [3] was 0 and the “Blackgrass plant response rating” value [3] was 30. For the same compound, the “Plant response rating, Foxtail, Giant” value [4] was 0, the “Foxtail, Giant plant response rating” value [4] was 20 and the “Plant response rating, Wheat” value [5] was 0. The “Wheat plant response rating” value [5] was 70, the “Plant response rating, Barnyardgrass” value [6, 16] was 40 and the “Plant response rating, Barnyardgrass” value ([6]; 500 g ai/ha) was 80. For the same compound, the “Plant response rating, Ragweed” value [7] was 10, the “Ragweed plant response rating” value [7] was 60 and the “Plant response rating, Kochia” value (kochia (Bassia scoparia) [8]) was 20. For the same compound, the “Kochia plant response rating” value (kochia (Bassia scoparia) [8]) was 30, the “Plant response rating, Pigweed” value [9] was 30 and the “Pigweed plant response rating” value [9] was 70. The “Plant response rating, Ryegrass, Italian” value [10] was 0, the “Ryegrass, Italian plant response rating” value [10] was 70 and the “Plant response rating, Foxtail, Giant” value [11, 16] was 20. The “Plant response rating, Foxtail, Giant” value ([11]; 500 g ai/ha) was 90, the “Plant response rating, Corn” value (corn (Zea mays)) was 30 and the “Corn plant response rating” value (corn (Zea mays)) was 40. The “Plant response rating, Ragweed” value [12, 16] was 0, the “Plant response rating, Ragweed” value ([12]; 500 g ai/ha) was 30 and the “Plant response rating, Barnyardgrass” value [13] was 0. For the same compound, the “Barnyardgrass plant response rating” value [13] was 50, the “Plant response rating, Galium” value [14] was 50 and the “Galium plant response rating” value [14] was 70. For the same compound, the “Plant response rating, Ryegrass, Italian” value [15, 16] was 30 and the “Plant response rating, Ryegrass, Italian” value ([15]; 500 g ai/ha) was 90.

For `Cc1cc(Cl)c(N(S(=O)(=O)C(F)(F)F)S(=O)(=O)C(F)(F)F)cc1C1=NOC2(CCCCC2)C1` [Compound 217], the “Plant response rating, Kochia” value (kochia (Bassia scoparia) [1]; [16]) was 70, the “Plant response rating, Kochia” value (kochia (Bassia scoparia) [1]; 500 g ai/ha) was 90 and the “Plant response rating, Pigweed” value [2, 16] was 70. The “Plant response rating, Pigweed” value ([2]; 500 g ai/ha) was 100, the “Plant response rating, Blackgrass” value [3] was 0 and the “Blackgrass plant response rating” value [3] was 20. For the same compound, the “Plant response rating, Foxtail, Giant” value [4] was 0, the “Foxtail, Giant plant response rating” value [4] was 0 and the “Plant response rating, Wheat” value [5] was 0. The “Wheat plant response rating” value [5] was 30, the “Plant response rating, Barnyardgrass” value [6, 16] was 90 and the “Plant response rating, Barnyardgrass” value ([6]; 500 g ai/ha) was 100. The “Plant response rating, Ragweed” value [7] was 60, the “Ragweed plant response rating” value [7] was 70 and the “Plant response rating, Kochia” value (kochia (Bassia scoparia) [8]) was 50. The “Kochia plant response rating” value (kochia (Bassia scoparia) [8]) was 70, the “Plant response rating, Pigweed” value [9] was 40 and the “Pigweed plant response rating” value [9] was 80. The “Plant response rating, Ryegrass, Italian” value [10] was 0, the “Ryegrass, Italian plant response rating” value [10] was 0 and the “Plant response rating, Foxtail, Giant” value [11, 16] was 90. For the same compound, the “Plant response rating, Foxtail, Giant” value ([11]; 500 g ai/ha) was 100, the “Plant response rating, Corn” value (corn (Zea mays)) was 0 and the “Corn plant response rating” value (corn (Zea mays)) was 20. The “Plant response rating, Ragweed” value [12, 16] was 60, the “Plant response rating, Ragweed” value ([12]; 500 g ai/ha) was 90 and the “Plant response rating, Barnyardgrass” value [13] was 0. The “Barnyardgrass plant response rating” value [13] was 30, the “Plant response rating, Galium” value [14] was 80 and the “Galium plant response rating” value [14] was 90. For the same compound, the “Plant response rating, Ryegrass, Italian” value [15, 16] was 80 and the “Plant response rating, Ryegrass, Italian” value ([15]; 500 g ai/ha) was 100.
